Experimental data reported in US12384800B2, “Antitumoral compounds” (priority 2017, dated 2025).
Values joined by “and” are separate entries in the source; they are usually repeats but may differ in a detail not shown here. Identical values can stand only once. Like-named read-outs stand apart in the source and are kept apart here.

What was measured:
[1] = MTMD (Maximum Tolerated Multiple Dose) determination, iv weekly x 3; format: in vivo; conditions: mice; iv/Q7d × 3
Procedure, shortened: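 Female CD-1 or athymic nude mice received compound in formulation iv at different concentrations, once for MTD or weekly for three consecutive weeks for MTMD, with vehicle groups included. Clinical signs of systemic toxicity, body weight and mortality were followed up to 14 days after administration.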

HT1080 tumors [2] = conditions: Day 0
Experimental: (§1) Female athymic nu/nu mice (Harlan Laboratories Models, S.L. Barcelona, Spain or Envigo, Spain) were utilized for all experiments. Animal were housed in individually ventilated cages Sealsafe® Plus, Techniplast S.P.A.), up to ten per cage on a 12-hour light-dark cycle at 21-23° C. and 40-60% humidity. […] Animals were acclimated for at least 5 days prior to tumor implantation with a tumor cell suspension.
(§2) HT1080 cells were maintained in vitro at 37° C. with 5% CO2 in Minimum Essential Medium Eagle (MEME) (Sigma-Aldrich, Co). Each animal was orthotopically implanted into gastroecnemius muscle by an intramuscular injection using a 26G needle and a 1 cc syringe at 4-6 weeks of age, with 10×10^6 HT1080 cells, suspended in serum free medium, without antibiotics.
(§3) Treatment tolerability was assessed by monitoring body weight evolution, clinical signs of systemic toxicity, as well as evidences of local damage in the injection site.
(§4) In xenograft studies with HT1080 cell line: • Total diameter (tumor+leg) measurements were determined by using digital caliper (Fowler Sylvac, S235PAT).
(§5) Treatments producing >20% lethality and/or 20% net body weight loss were considered toxic.

HGC27 tumors = assay: Human gastric xenograft, tumor volume
Experimental: as §1
HGC27 cells were maintained in vitro at 37° C. with 5% CO2 in Iscove's Modified Dulbecco's Medium (Sigma Aldrich, Co). Culture cells were passage every 3 to 5 days on reaching confluence. Each animal was subcutaneously implanted (on the right flank using 26G needle and a 1 cc syringe) at 4-6 weeks of age with 5×10^6 HGC-27 cells suspended in 0.05 mL of a solution consisting of 50% Matrigel® (Corning Incorporated Life Sciences), 50% medium without serum or antibiotics.
as §3
(§6) In Xenograft Studies with Other Cell Lines: • Tumor volume was calculated using the equation (a·b^2)/2, where a: length (longest diameter) and b: width (shortest diameter) were measured in mm by using digital caliper (Fowler Sylvac, S235PAT).
as §5

H460 tumors = assay: Human lung (NSCLC) xenograft, tumor volume
Experimental: as §1
H460 cells were maintained in vitro at 37° C. with 5% CO2 in Dulbecco's Modified Eagle's Medium (Sigma-Aldrich, Co). Culture cells were passaged every 3 to 5 days upon reaching confluence. Each animal was subcutaneously implanted (on the right flank using 26G needle and a 1 cc syringe) at 4-6 weeks of age with 5×10^6 H460 cells suspended in 0.05 mL of a solution consisting of 50% Matrigel® (Corning Incorporated Life Sciences) and 50% medium without serum or antibiotics.
as §3, §6, §5
Tables and figures summarize the data obtained from complete experimental groups, i.e. those groups keeping the initial number of animals, n=8-10.

MDA-MB-231 tumors = assay: Human breast xenograft, tumor volume
Experimental: as §1
MDA-MB-231 cells were maintained in vitro at 37° C. with 5% CO2 in Dulbecco's Modified Eagle's Medium (Sigma-Aldrich, Co). Culture cells were passaged every 3 to 5 days upon reaching confluence.
as §3, §6, §5

A2780 tumors = assay: Human ovarian xenograft, tumor volume
Experimental: as §1
Culture cells were passaged every 3 to 5 days upon reaching confluence. Each animal was subcutaneously implanted (on the right flank using 26G needle and a 1 cc syringe) at 4-6 weeks of age with 10×10^6 A2780 cells suspended in 0.05 mL of a solution consisting of 50% Matrigel® (Corning Incorporated Life Sciences) and 50% medium without serum or antibiotics.
as §3, §6, §5

HT1080 tumors [3] = assay: Human fibrosarcoma xenograft, total diameter (tumor + leg)
Experimental: as §1, §2, §3, §4, §5

[4] = system: xenografted human tumor cell lines (breast, kidney and ovarian cancer); conditions: xenografted human tumor cell lines in mice (breast, kidney and ovarian cancer); cited from earlier work

COc1c(C)cc2c(c1O)[C@@H]1[C@@H]3[C@@H]4SC[C@]5(NCCc6c5oc5ccccc65)C(=O)OC[C@@H](c5c6c(c(C)c(OC(C)=O)c54)OCO6)N3[C@@H](O)[C@H](C2)N1C [Compound 32]
MTMD [1]: 0.5 mg/kg
Total diameter (tumor + leg) (HT1080 tumors [2]): 7.5 mm

COc1ccc2[nH]c3c(c2c1)CCN[C@]31CS[C@@H]2c3c(OC(C)=O)c(C)c4c(c3[C@H](COC1=O)N1[C@@H]2[C@H]2c3c(cc(C)c(OC)c3O)C[C@@H]([C@@H]1O)N2C)OCO4 [PM01183, reference compound]
Median Tumor Volume (HGC27 tumors; Day 2): 317.5 mm^3 and 372.4 mm^3 and 395.6 mm^3
Median Tumor Volume (HGC27 tumors; Day 5): 404.0 mm^3 and 474.1 mm^3 and 572.4 mm^3
Median Tumor Volume (HGC27 tumors; Day 7): 485.7 mm^3 and 571.8 mm^3 and 766.6 mm^3
Median Tumor Volume (HGC27 tumors; Day 9): 604.6 mm^3 and 787.9 mm^3 and 950.7 mm^3
Median Tumor Volume (HGC27 tumors; Day 12): 760.8 mm^3 and 951.1 mm^3
Median Tumor Volume (HGC27 tumors; Day 14): 789.6 mm^3 and 1064.4 mm^3 and 1199.4 mm^3
Median Tumor Volume (HGC27 tumors; Day 16): 719.5 mm^3 and 1346.1 mm^3 and 1353.1 mm^3
Median Tumor Volume (HGC27 tumors; Day 19): 895.9 mm^3 and 1691.8 mm^3 and 1294.3 mm^3
Median Tumor Volume (HGC27 tumors; Day 21): 1051.3 mm^3 and 1920.0 mm^3 and 1335.1 mm^3
Median Tumor Volume (HGC27 tumors; Day 23): 2011.4 mm^3 and 1320.3 mm^3
Median Tumor Volume (HGC27 tumors; Day 26): 1901.2 mm^3 and 2102.2 mm^3 and 1364.5 mm^3
Median Tumor Volume (HGC27 tumors; Day 28): 2028.9 mm^3
Median Tumor Volume (HGC27 tumors; Day 30): 1671.9 mm^3
Median Tumor Volume (HGC27 tumors; Day 33): 2009.2 mm^3
Median Tumor Volume (H460 tumors; Day 2): 457.0 mm^3
Median Tumor Volume (H460 tumors; Day 4): 861.5 mm^3
Median Tumor Volume (H460 tumors; Day 7): 940.4 mm^3 and 1004.0 mm^3 and 1280.2 mm^3
Median Tumor Volume (H460 tumors; Day 9): 1210.3 mm^3 and 1211.3 mm^3 and 1424.9 mm^3
Median Tumor Volume (H460 tumors; Day 11): 1433.8 mm^3 and 1969.9 mm^3
Median Tumor Volume (H460 tumors; Day 12): 1515.4 mm^3
Median Tumor Volume (H460 tumors; Day 14): 1529.5 mm^3 and 1633.3 mm^3
Median Tumor Volume (H460 tumors; Day 16): 1723.9 mm^3
Median Tumor Volume (H460 tumors; Day 19): 2112.3 mm^3
Median Tumor Volume (H460 tumors; Day 21): 2409.4 mm^3
Median Tumor Volume (MDA-MB-231 tumors; Day 4): 177.2 mm^3
Median Tumor Volume (MDA-MB-231 tumors; Day 7): 189.0 mm^3 and 185.9 mm^3 and 186.3 mm^3
Median Tumor Volume (MDA-MB-231 tumors; Day 11): 250.7 mm^3
Median Tumor Volume (MDA-MB-231 tumors; Day 14): 230.1 mm^3 and 290.8 mm^3 and 266.1 mm^3
Median Tumor Volume (MDA-MB-231 tumors; Day 18): 327.7 mm^3
Median Tumor Volume (MDA-MB-231 tumors; Day 21): 305.9 mm^3 and 337.9 mm^3 and 391.0 mm^3
Median Tumor Volume (MDA-MB-231 tumors; Day 25): 493.1 mm^3
Median Tumor Volume (MDA-MB-231 tumors; Day 28): 535.8 mm^3 and 507.4 mm^3 and 627.3 mm^3
Median Tumor Volume (MDA-MB-231 tumors; Day 32): 789.0 mm^3
Median Tumor Volume (MDA-MB-231 tumors; Day 35): 819.7 mm^3 and 796.1 mm^3
Median Tumor Volume (MDA-MB-231 tumors; Day 36): 1022.0 mm^3
Median Tumor Volume (MDA-MB-231 tumors; Day 39): 1294.2 mm^3
Median Tumor Volume (MDA-MB-231 tumors; Day 42): 962.7 mm^3 and 1062.5 mm^3 and 1643.3 mm^3
Median Tumor Volume (MDA-MB-231 tumors; Day 46): 1658.9 mm^3
Median Tumor Volume (MDA-MB-231 tumors; Day 49): 1301.3 mm^3 and 1416.3 mm^3 and 1938.0 mm^3
Median Tumor Volume (MDA-MB-231 tumors; Day 52): 2199.4 mm^3
Median Tumor Volume (MDA-MB-231 tumors; Day 56): 1673.3 mm^3
Median Tumor Volume (MDA-MB-231 tumors; Day 63): 1811.9 mm^3
Median Tumor Volume (A2780 tumors; Day 2): 235.5 mm^3 and 236.5 mm^3
Median Tumor Volume (A2780 tumors; Day 3): 454.5 mm^3
Median Tumor Volume (A2780 tumors; Day 4): 463.2 mm^3
Median Tumor Volume (A2780 tumors; Day 5): 671.2 mm^3 and 772.1 mm^3
Median Tumor Volume (A2780 tumors; Day 7): 1048.9 mm^3 and 1161.5 mm^3 and 986.3 mm^3
Median Tumor Volume (A2780 tumors; Day 9): 1451.4 mm^3
Median Tumor Volume (A2780 tumors; Day 10): 1615.6 mm^3
Median Tumor Volume (A2780 tumors; Day 11): 2062 mm^3 and 2062.0 mm^3
Median Tumor Volume (A2780 tumors; Day 12): 2020.3 mm^3 and 1703.0 mm^3
Median Tumor Volume (A2780 tumors; Day 14): 2029.3 mm^3
Total diameter (tumor + leg) (HT1080 tumors [3]; Day 2): 9.8 mm
Total diameter (tumor + leg) (HT1080 tumors [3]; Day 2, iv Days 0, 7 and 14, PM01183 […], Compound D 0.5 mg/kg): 9.2 mm
Total diameter (tumor + leg) (HT1080 tumors [3]; Day 5): 9.7 mm
Total diameter (tumor + leg) (HT1080 tumors [3]; Day 7): 11.4 mm
Total diameter (tumor + leg) (HT1080 tumors [3]; Day 7, iv Days 0, 7 and 14, PM01183 […], 4-R 0.30 mg/kg): 11.2 mm
Total diameter (tumor + leg) (HT1080 tumors [3]; Day 7, iv Days 0, 7 and 14, PM01183 […], Compound D 0.5 mg/kg): 12.2 mm
Total diameter (tumor + leg) (HT1080 tumors [3]; Day 9): 12.7 mm
Total diameter (tumor + leg) (HT1080 tumors [3]; Day 9, iv Days 0, 7 and 14, PM01183 […], 4-R 0.30 mg/kg): 12.3 mm
Total diameter (tumor + leg) (HT1080 tumors [3]; Day 9, iv Days 0, 7 and 14, PM01183 […], Compound D 0.5 mg/kg): 12.6 mm
Total diameter (tumor + leg) (HT1080 tumors [3]; Day 12): 13.7 mm
Total diameter (tumor + leg) (HT1080 tumors [3]; Day 12, iv Days 0, 7 and 14, PM01183 […], Compound D 0.5 mg/kg): 13.1 mm
Total diameter (tumor + leg) (HT1080 tumors [3]; Day 14): 14.6 mm
Total diameter (tumor + leg) (HT1080 tumors [3]; Day 14, iv Days 0, 7 and 14, PM01183 […], 4-R 0.30 mg/kg): 14.6 mm
Total diameter (tumor + leg) (HT1080 tumors [3]; Day 14, iv Days 0, 7 and 14, PM01183 […], Compound D 0.5 mg/kg): 14.6 mm
Total diameter (tumor + leg) (HT1080 tumors [3]; Day 16): 15.5 mm
Total diameter (tumor + leg) (HT1080 tumors [3]; Day 16, iv Days 0, 7 and 14, PM01183 […], Compound D 0.5 mg/kg): 14.5 mm
Total diameter (tumor + leg) (HT1080 tumors [3]; Day 19): 15.6 mm
Total diameter (tumor + leg) (HT1080 tumors [3]; Day 19, iv Days 0, 7 and 14, PM01183 […], Compound D 0.5 mg/kg): 15.0 mm
Total diameter (tumor + leg) (HT1080 tumors [3]; Day 21): 18.0 mm
Total diameter (tumor + leg) (HT1080 tumors [3]; Day 21, iv Days 0, 7 and 14, PM01183 […], 4-R 0.30 mg/kg): 15.1 mm
Total diameter (tumor + leg) (HT1080 tumors [3]; Day 21, iv Days 0, 7 and 14, PM01183 […], Compound D 0.5 mg/kg): 18.0 mm
Total diameter (tumor + leg) (HT1080 tumors [3]; Day 23, iv Days 0, 7 and 14, PM01183 […], 4-R 0.30 mg/kg): 16.3 mm
in vivo activity [4]: significant in vivo activity
